Measurements taken from patent US20090247559A1 (Exelixis, Inc., priority 2007, published 2009).

Biological target: PIM (PIM-1, PIM-2, and/or PIM-3)
Assay: PIM-1, PIM-2 and PIM-3 inhibition, biochemical chemiluminescence assays (Kinase Glo, IC50 determination)
Conditions: Table 1 activity class; PIM refers to PIM-1, PIM-2, and/or PIM-3; read-out: PIM IC50 (Activity B)
Experimental: (§1) The IC50 evaluation of compounds against the PIM-1 oncogene was performed in a Chemiluminesence assay utilizing a Greiner 384-well white medium binding white plate format. […] Following an incubation period of 120 minutes at ambient temperature (24-27° C.), 10 μL of Kinase Glo (Promega) was added. The luminescence was measured following a Luminescence Protocol on a Victor plate reader.
as §1, with “PIM-2” for “PIM-1”, “format. […] The assay procedure involves compound dilution followed by addition of 3 nM PIM-2 to the designated well plates and subsequent pre-incubation of the compounds with the enzyme for 30 minutes at ambient temperature (24-27° C.).” for “format.”
as §1, with “PIM-3 Oncogene” for “PIM-1 oncogene”

| SMILES | IC50 [µM] |
| --- | --- |
| O=c1[nH]c(CNC2CCNCC2)nc2c1oc1ccc(Br)cc12 [Compound 8, 8-bromo-2-[(piperidin-4-ylamino)methyl][1]benzofuro[3,2-d]pyrimidin-4(3H)-one] | < 10 |
| CN(C)CCCNC(=O)[C@@H]1CCCN1Cc1nc2c(oc3ccc(Br)cc32)c(=O)[nH]1 [Compound 20, 1-[(8-bromo-4-oxo-3,4-dihydro[1]benzofuro[3,2-d]pyrimidin-2-yl)methyl]-N-[3-(dimethylamino)propyl]prolinamide] | < 10 |
| O=c1[nH]c(CNc2ccc(F)cc2)nc2c1oc1ccc(Br)cc12 [Compound 22, 8-bromo-2-{[(4-fluorophenyl)amino]methyl}[1]benzofuro[3,2-d]pyrimidin-4(3H)-one] | < 10 |
| CCN(CC)CC(=O)N1CCN(Cc2nc3c(oc4ccc(Br)cc43)c(=O)[nH]2)CC1 [Compound 26, 8-bromo-2-{[4-(N,N-diethylglycyl)piperazin-1-yl]methyl}[1]benzofuro[3,2-d]pyrimidin-4(3H)-one] | < 10 |
| COC(=O)c1ccc(-c2nc3c(oc4ccccc43)c(=O)[nH]2)cc1 [Compound 53, methyl 4-(4-oxo-3,4-dihydro[1]benzofuro[3,2-d]pyrimidin-2-yl)benzoate] | < 10 |
| Cc1cc(NCC2CCOC2)ccc1-c1nc2c(oc3ccc(Br)cc32)c(=O)[nH]1 (stereo not shown) [Compound 61, 8-bromo-2-{2-methyl-4-[(tetrahydrofuran-3-ylmethyl)amino]phenyl}[1]benzofuro[3,2-d]pyrimidin-4(3H)-one] | < 10 |
| CN1CCN(c2ccccc2CNCc2nc3c(oc4ccc(Br)cc43)c(=O)[nH]2)CC1 [Compound 74, 8-bromo-2-[({[2-(4-methylpiperazin-1-yl)phenyl]methyl}amino)methyl][1]benzofuro[3,2-d]pyrimidin-4(3H)-one] | < 10 |
| CN(C)c1cccc(NCc2nc3c(oc4ccc(Br)cc43)c(=O)[nH]2)c1 [Compound 76, 8-bromo-2-({[3-(dimethylamino)phenyl]amino}methyl)[1]benzofuro[3,2-d]pyrimidin-4(3H)-one] | < 10 |
| CN(C)CCN1CCN(Cc2nc3c(oc4ccc(Br)cc43)c(=O)[nH]2)CC1 [Compound 81, 8-bromo-2-({4-[2-(dimethylamino)ethyl]piperazin-1-yl}methyl)[1]benzofuro[3,2-d]pyrimidin-4(3H)-one] | < 10 |
| O=c1[nH]c(CN2CCN(CCN3CCOCC3)CC2)nc2c1oc1ccc(Br)cc12 [Compound 82, 8-bromo-2-{[4-(2-morpholin-4-ylethyl)piperazin-1-yl]methyl}[1]benzofuro[3,2-d]pyrimidin-4(3H)-one] | < 10 |
| CN1CCC(N2CCN(Cc3nc4c(oc5ccc(Br)cc54)c(=O)[nH]3)CC2)CC1 [Compound 84, 8-bromo-2-{[4-(1-methylpiperidin-4-yl)piperazin-1-yl]methyl}[1]benzofuro[3,2-d]pyrimidin-4(3H)-one] | < 10 |
| O=c1[nH]c(-c2ccc(Cl)cc2)nc2c1oc1ccc(Br)cc12 [Compound 94, 8-Bromo-2-(4-chlorophenyl)[1]benzofuro[3,2-d]pyrimidin-4(3H)-one] | < 10 |
| O=c1[nH]c(-c2ccc(Br)cc2)nc2c1oc1ccc(Br)cc12 [Compound 95, 8-Bromo-2-(4-bromophenyl)[1]benzofuro[3,2-d]pyrimidin-4(3H)-one] | < 10 |
| CNC(=O)c1ccc2oc3c(=O)[nH]c(-c4ccccc4Cl)nc3c2c1 [Compound 97, 2-(2-chlorophenyl)-N-methyl-4-oxo-3,4-dihydrobenzofuro[3,2-d]pyrimidine-8-carboxamide] | < 10 |
| O=C(COc1cccc(-c2nc3c(oc4ccc(Br)cc43)c(=O)[nH]2)c1)NCC1CC1 [Compound 98, 2-{[3-(8-bromo-4-oxo-3,4-dihydro[1]benzofuro[3,2-d]pyrimidin-2-yl)phenyl]oxy}-N-(cyclopropylmethyl)acetamide] | < 10 |
| CN1CCN(C(=O)c2nc3c(oc4ccc(Br)cc43)c(=O)[nH]2)CC1 [Compound 106, 8-Bromo-2-[(4-methylpiperazin-1-yl)carbonyl][1]benzofuro[3,2-d]pyrimidin-4(3H)-one] | < 10 |
| NC1C[C@H]2CC[C@@H](C1)N2Cc1nc2c(oc3ccc(Br)cc32)c(=O)[nH]1 (stereo partly drawn) [Compound 131, 2-{[(1R,5S)-3-Amino-8-azabicyclo[3.2.1]oct-8-yl]methyl}-8-bromo[1]benzofuro[3,2-d]pyrimidin-4(3H)-one] | < 10 |
| CN1CCN(C(c2nc3c(oc4ccc(Br)cc43)c(=O)[nH]2)c2ccccc2Cl)CC1 (stereo not shown) [Compound 156, 8-Bromo-2-[(2-chlorophenyl)(4-methylpiperazin-1-yl)methyl][1]benzofuro[3,2-d]pyrimidin-4(3H)-one] | < 10 |
| CN1CCN(C(c2ccccc2)c2nc3c(oc4ccc(Br)cc43)c(=O)[nH]2)CC1 (stereo not shown) [Compound 188, 8-bromo-2-[(4-methylpiperazin-1-yl)(phenyl)methyl][1]benzofuro[3,2-d]pyrimidin-4(3H)-one] | < 10 |
| CN(C)CCNCc1nc2c(oc3ccc(Br)cc32)c(=O)[nH]1 [Compound 200, 8-bromo-2-({[2-(dimethylamino)ethyl]amino}methyl)[1]benzofuro[3,2-d]pyrimidin-4(3H)-one] | < 10 |
| O=c1[nH]c(CN2CCC(N3CCCCC3)CC2)nc2c1oc1ccc(Br)cc12 [Compound 202, 2-(1,4′-bipiperidin-1′-ylmethyl)-8-bromo[1]benzofuro[3,2-d]pyrimidin-4(3H)-one] | < 10 |
| CN1CCN(C(Cc2ccccc2)c2nc3c(oc4ccc(Br)cc43)c(=O)[nH]2)CC1 (stereo not shown) [Compound 215, 8-bromo-2-[1-(4-methylpiperazin-1-yl)-2-phenylethyl][1]benzofuro[3,2-d]pyrimidin-4(3H)-one] | < 10 |
| CC(C)COc1cnccc1-c1nc2c(oc3ccc(Br)cc32)c(=O)[nH]1 [Compound 219, 8-bromo-2-{3-[(2-methylpropyl)oxy]pyridin-4-yl}[1]benzofuro[3,2-d]pyrimidin-4(3H)-one] | < 10 |
| CN1CCN(c2ccc(CNc3nc4c(oc5ccc(Br)cc54)c(=O)[nH]3)cc2)CC1 [Compound 225, 8-bromo-2-({[4-(4-methylpiperazin-1-yl)phenyl]methyl}amino)[1]benzofuro[3,2-d]pyrimidin-4(3H)-one] | < 10 |
| O=c1[nH]c(CN2CCN(c3cccc(Cl)c3)CC2)nc2c1oc1ccc(Br)cc12 [Compound 278, 8-bromo-2-{[4-(3-chlorophenyl)piperazin-1-yl]methyl}[1]benzofuro[3,2-d]pyrimidin-4(3H)-one] | < 10 |
| C[C@@H]1CN(Cc2nc3c(oc4ccc(Br)cc43)c(=O)[nH]2)C[C@H](C)N1 [Compound 296, 8-bromo-2-{[(3R,5S)-3,5-dimethylpiperazin-1-yl]methyl}[1]benzofuro[3,2-d]pyrimidin-4(3H)-one] | < 10 |
| O=c1[nH]c(-c2cn3c(n2)CNCC3)nc2c1oc1ccc(Br)cc12 [Compound 301, 8-Bromo-2-(5,6,7,8-tetrahydroimidazo[1,2-a]pyrazin-2-yl)[1]benzofuro[3,2-d]pyrimidin-4(3H)-one] | < 10 |
| C[C@@H]1CN(Cc2nc3c(oc4ccc(Br)cc43)c(=O)[nH]2)C[C@H](C)N1C [Compound 316, 8-bromo-2-{[(3R,5S)-3,4,5-trimethylpiperazin-1-yl]methyl}[1]benzofuro[3,2-d]pyrimidin-4(3H)-one] | < 10 |
